In brackets after ≈: the same amount, converted by molar mass. Where two headings read alike, the source gives them in different places.
Tests used:
recombinant Lmo2812 = assay: Enzymatic activity assay with natural muropeptides; format: biochemical, Listeria monocytogenes; settings: for M4 (%) / M5 (%): 120 min at 37°C, HPLC
Description: No such cleavage occurred in the absence of Lmo2812.
The pH-dependence of the activity of Lmo2812 against monomeric muropepeptide M5 was determined in the pH range of 4.5 to 7.0. The highest activity was detected in assays performed at pH 7.0 in a Tris-Mg buffer, where half of the substrate was converted to the tetrapeptide (Table 3).
Whole total peptidoglycan and purified muropeptides were isolated from E. coli cells as described previously. A 10 μg sample of recombinant Lmo2812 was mixed with 5 μg of M5 (NAcGlc-NAcMur-pentapeptide) or D45 (NAcGlc-NAcMur-tetrapeptide-NAcGlc-NAcMur-pentapeptide) in a volume of 30 μl using three different buffer conditions: pH 4.5 (50 mM NaPi, 1% methanol, pH 4.5), pH 7.0 (30 mM Tris-HCl, 3 mM MgCl2, pH 7.0), or NaPi (50 mM sodium phosphate buffer, pH 7.0). These mixtures were incubated at 37°C for 120 min. Control samples of M5 or D45 without Lmo2812 were similarly incubated in 30 mM Tris-HCl buffer, 3 mM MgCl2, pH 7.0. The samples were analyzed by HPLC using a C18 reversed phase column and a methanol gradient to separate the peaks.

[1] = system: L. monocytogenes KD2812 (Δlmo2812); assay: Microdilution MIC test; format: cell-based, Listeria monocytogenes
Description: (§1) To determine the effect of these mutations on cell morphology, the strains EGD, KD2812 and DA07 were analyzed by scanning electron microscopy (SEM). […] At 30°C the average cell length compared to strain EGD was increased by 38.5% in strain KD2812 and by 44.8% in the double mutant strain. The respective values at 37°C were 37.5% and 43%. […] The variant cells were characteristically curved with a bend at either one or both ends and subterminal constrictions. The number of cells with altered morphology was increased as the growth temperature was raised (Figure 3; b, e, h). Cell bending was more pronounced in the population of AD07 mutant cells (Figure 3; c, f, i). […] Similar results were found for a mutant of L. monocytogenes lacking PBP5 (PBPD1) examined in a previous study.
(§2) Microdilution tests were performed using cation-adjusted Mueller-Hinton broth (CAMHB) supplemented with 5% lysed horse blood containing two-fold dilutions of the antimicrobial agents. These mixtures were dispensed in 100 μl aliquots into plastic 96-well plates. To prepare inocula, a single colony of each strain from a TSBYE plate was transferred into 10 ml of the same medium and incubated for 24 h at 37°C. These cultures were serially diluted in CAMHB to a concentration of 10^5 cfu/ml and 100 μl aliquots were added to the microdilution plates. The plates were incubated for 18-20 h at 37°C before the reading of the MIC endpoints. The MIC was the lowest antibiotic concentration at which visible growth was inhibited.

[2] = system: L. monocytogenes AD07 (Δlmo2812 Δlmo2754); assay: Microdilution MIC test; format: cell-based, Listeria monocytogenes
Description: as §1, §2

L. monocytogenes EGD = assay: Microdilution MIC test; format: cell-based, Listeria monocytogenes
Description: as §1, §2

[3] = target: purified recombinant Lmo2812 (PBPD2) (Listeria monocytogenes, UniProt Q8Y3M3); assay: Fluorescent antibiotic binding assay, purified recombinant protein; settings: purified recombinant Lmo2812; antibiotic concentration for 50% of maximum binding; read-out: apparent affinity constant (Kd50)
Chain of purified recombinant Lmo2812 (PBPD2) (Q8Y3M3 entry or part of it): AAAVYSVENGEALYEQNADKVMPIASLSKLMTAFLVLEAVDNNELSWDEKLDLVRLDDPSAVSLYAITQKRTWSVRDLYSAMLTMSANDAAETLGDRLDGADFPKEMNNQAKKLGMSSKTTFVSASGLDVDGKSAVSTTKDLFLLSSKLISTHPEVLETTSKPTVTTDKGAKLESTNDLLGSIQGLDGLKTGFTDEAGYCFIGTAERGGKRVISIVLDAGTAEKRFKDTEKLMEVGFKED
Description: The purified protein was incubated with different concentrations of Boc-FL (0.25, 0.5, 2.5, 5 and 10 μM). […] Lmo2812 was the major band on gels, with a slower migrating minor band thought to represent a dimeric form (Figure 2).
Figure 2 Purified recombinant L. monocytogenes Lmo2812 (PBPD2) identified with Boc-FL. Samples of purified recombinant Lmo2812 (10 μg) were labeled with Boc-FL at concentrations of 0 (1), 0.25 (2), 0.5 (3), 2.5 (4), 5 (5) and 10 μM (6). Labeled bands were detected directly on the gel, quantified and their molecular mass estimated. The affinity of the bands for Boc-FL (Kd50) was estimated from their fluorescence as a function of the concentration of Boc-FL. The names of the bands are indicated on the right, and the positions of the molecular weight markers are shown on the left.
The β-lactam binding capacity of Lmo2812 was evaluated with three different fluorescent antibiotics: Boc-FL, Boc-650 and Amp-430.
Total whole cell proteins or purified recombinant protein resuspended in 50 mM NaPi buffer, pH 7.0 were labeled by incubation at 37°C for 30 min with different concentrations of Boc-FL (Molecular Probes), Boc-650 (Molecular Probes) or Amp-430 (prepared in the laboratory by coupling ampicillin to Alexa-430), and then separated on a 10% acrylamide, 3.3% cross-linkage SDS-PAGE gel. To avoid degradation of the fluorescent β-lactam antibiotics by β-lactamases, samples were incubated at 37°C with clavulanic acid at a final concentration of 10 μg/ml or EDTA at a final concentration of 10 mM for 30 min before labeling, where appropriate. Competition experiments were carried out by preincubation of the samples with ampicillin (100 μg/ml) for 30 min at 37°C, before adding the fluorescent antibiotic. The samples were then further incubated for 30 min at 37°C. PBPs were visualized directly on the polyacryloamide gel by fluorescence using a Typhoon 9410 imager (Amersham Biosciences) with excitation wavelengths of 588, 633 or 457 nm and emission filters 520BP40, 670BP30 or 555BP20 for Boc-FL, Boc-650 and Amp-430, respectively. […]

[4] = system: purified recombinant Lmo2812; assay: DD-carboxypeptidase activity assay with synthetic tripeptide; format: biochemical, Listeria monocytogenes; settings: substrate up to 12.5 mM, 40 μg of purified protein
Description: The maximum activity was 0.75 pmoles/μg min, indicating low DD-carboxypeptidase activity under these assay conditions.
A modification of the method of Frere et al. was used for DD-carboxypeptidase activity measurement. A reaction mixture comprised of 15 μl of Nα,Nε-Diacetyl-Lys-D-Ala-D-Ala (25 mM), 3 μl of buffer (300 mM Tris-HCl pH 7.5) and 12 μl of purified recombinant Lmo2812 was prepared, incubated at 37°C and samples were taken every 10 min for 1 h. To these samples, 5 μl of 10 mg/ml (in methanol) o-Dianisidine (SIGMA) and 70 μl of enzyme/coenzyme mix (flavinadenine dinucleotide (FAD), Peroxidase and D-Amino acid Oxidase) were added. These mixtures were incubated at 37°C for 5 min, then 400 μl of methanol-water (v/v) was added and incubation continued at 37°C for another 2 min. The absorbance of each reaction was immediately read at 460 nm. A number of controls were performed: reactions containing only recombinant Lmo2812 fractions, reactions lacking recombinant Lmo2812 to establish the level of natural degradation of the tripeptide for at each sampling point, and standard samples containing known amounts of D-alanine.

[5] = Listeria monocytogenes, EGD wild-type, CAMHB with 5% lysed horse blood, 18-20 h at 37°C, read-out: MIC
[6] = KD2812 mutant, CAMHB with 5% lysed horse blood, 18-20 h at 37°C
[7] = AD07 double mutant, CAMHB with 5% lysed horse blood, 18-20 h at 37°C
[8] = EGD wild-type, CAMHB with 5% lysed horse blood, 18-20 h at 37°C

NAcGlc-NAcMur-pentapeptide [M5]
M4 (%) (recombinant Lmo2812; Lmo2812, M5, NaPi, pH 7.0): 16%
M5 (%) (recombinant Lmo2812; Lmo2812, M5, NaPi, pH 7.0): 84%
M4 (%) (recombinant Lmo2812; Lmo2812, M5, Tris-Mg, pH 7.0): 48%
M5 (%) (recombinant Lmo2812; Lmo2812, M5, Tris-Mg, pH 7.0): 52%
M4 (%) (recombinant Lmo2812; Lmo2812, M5, pH 4.5): 3%
M5 (%) (recombinant Lmo2812; Lmo2812, M5, pH 4.5): 97%

CCN1CCN(C(=O)N[C@@H](C(=O)N[C@@H]2C(=O)N3[C@@H]2SC(C)(C)[C@@H]3C(=O)O)c2ccccc2)C(=O)C1=O [piperacillin]
MIC ([1]; Listeria monocytogenes): 1.25 µg/mL (≈ 2.42 µM)
MIC ([2]; Listeria monocytogenes): 1.25 µg/mL (≈ 2.42 µM)
MIC (L. monocytogenes EGD; Listeria monocytogenes): 1.25 µg/mL (≈ 2.42 µM)

CC(C)(O/N=C(\C(=O)N[C@@H]1C(=O)N2C(C(=O)[O-])=C(C[n+]3ccccc3)CS[C@H]12)c1csc(N)n1)C(=O)O [ceftazidime]
MIC ([1]; Listeria monocytogenes): 256 µg/mL (≈ 468 µM)
MIC ([2]; Listeria monocytogenes): 256 µg/mL (≈ 468 µM)
MIC (L. monocytogenes EGD; Listeria monocytogenes): 256 µg/mL (≈ 468 µM)

Cc1onc(-c2ccccc2)c1C(=O)N[C@@H]1C(=O)N2[C@@H]1SC(C)(C)[C@@H]2C(=O)O [oxacillin]
MIC ([2]; Listeria monocytogenes): 1.25 µg/mL (≈ 3.11 µM)
MIC (L. monocytogenes EGD; [5]): 2.5 µg/mL (≈ 6.23 µM)

Bocillin-650 [Boc-650]
Kd [3]: 2.8 µM

Nα,Nε-Diacetyl-Lys-D-Ala-D-Ala
maximum DD-carboxypeptidase activity [4]: 0.75 pmol/µg/min

CO/N=C(\C(=O)N[C@@H]1C(=O)N2C(C(=O)O)=C(COC(C)=O)CS[C@H]12)c1csc(N)n1 [cefotaxim]
MIC [1, 6]: 6 µg/mL (≈ 13.2 µM)
MIC [2, 7]: 6 µg/mL (≈ 13.2 µM)
MIC (L. monocytogenes EGD; [8]): 6 µg/mL (≈ 13.2 µM)

CC(=O)OCC1=C(C(=O)O)N2C(=O)[C@@H](NC(=O)Cc3cccs3)[C@H]2SC1 [cefalotin]
MIC (L. monocytogenes EGD; [5]): 2 µg/mL (≈ 5.04 µM)

Ampicillin-Alexa430 [Amp-430]
Kd [3]: 18.5 µM

penicillin
MIC [1, 6]: 0.16 µg/mL
MIC [2, 7]: 0.08 µg/mL
MIC (L. monocytogenes EGD; [8]): 0.16 µg/mL

CO[C@@]1(NC(=O)Cc2cccs2)C(=O)N2C(C(=O)O)=C(COC(N)=O)CS[C@@H]21 [cefoxitin]
MIC ([1]; Listeria monocytogenes): 32 µg/mL (≈ 74.9 µM)
MIC ([2]; Listeria monocytogenes): 32 µg/mL (≈ 74.9 µM)
MIC (L. monocytogenes EGD; Listeria monocytogenes): 32 µg/mL (≈ 74.9 µM)

NAcGlc-NAcMur-tetrapeptide-NAcGlc-NAcMur-pentapeptide [D45]
hydrolysis by purified Lmo2812 (recombinant Lmo2812; up to 100 μg of protein, up to 18 h): no such enzymatic activity was detected
